As usually defined, the inhibition is the drop in the measured response relative to a control, in per cent.

Data on 30 compounds can be found in patent US8765773B2, “Substituted hydroxamic acids and uses thereof” (Millennium Pharmaceuticals, Inc., priority 2010, dated 2014).

The target of the first experiment is T1, purified human HDAC6 (Homo sapiens, UniProt Q9UBN7).
T1 construct: purchased BPS Bioscience 5006
T1 sequence (Q9UBN7 1-1215): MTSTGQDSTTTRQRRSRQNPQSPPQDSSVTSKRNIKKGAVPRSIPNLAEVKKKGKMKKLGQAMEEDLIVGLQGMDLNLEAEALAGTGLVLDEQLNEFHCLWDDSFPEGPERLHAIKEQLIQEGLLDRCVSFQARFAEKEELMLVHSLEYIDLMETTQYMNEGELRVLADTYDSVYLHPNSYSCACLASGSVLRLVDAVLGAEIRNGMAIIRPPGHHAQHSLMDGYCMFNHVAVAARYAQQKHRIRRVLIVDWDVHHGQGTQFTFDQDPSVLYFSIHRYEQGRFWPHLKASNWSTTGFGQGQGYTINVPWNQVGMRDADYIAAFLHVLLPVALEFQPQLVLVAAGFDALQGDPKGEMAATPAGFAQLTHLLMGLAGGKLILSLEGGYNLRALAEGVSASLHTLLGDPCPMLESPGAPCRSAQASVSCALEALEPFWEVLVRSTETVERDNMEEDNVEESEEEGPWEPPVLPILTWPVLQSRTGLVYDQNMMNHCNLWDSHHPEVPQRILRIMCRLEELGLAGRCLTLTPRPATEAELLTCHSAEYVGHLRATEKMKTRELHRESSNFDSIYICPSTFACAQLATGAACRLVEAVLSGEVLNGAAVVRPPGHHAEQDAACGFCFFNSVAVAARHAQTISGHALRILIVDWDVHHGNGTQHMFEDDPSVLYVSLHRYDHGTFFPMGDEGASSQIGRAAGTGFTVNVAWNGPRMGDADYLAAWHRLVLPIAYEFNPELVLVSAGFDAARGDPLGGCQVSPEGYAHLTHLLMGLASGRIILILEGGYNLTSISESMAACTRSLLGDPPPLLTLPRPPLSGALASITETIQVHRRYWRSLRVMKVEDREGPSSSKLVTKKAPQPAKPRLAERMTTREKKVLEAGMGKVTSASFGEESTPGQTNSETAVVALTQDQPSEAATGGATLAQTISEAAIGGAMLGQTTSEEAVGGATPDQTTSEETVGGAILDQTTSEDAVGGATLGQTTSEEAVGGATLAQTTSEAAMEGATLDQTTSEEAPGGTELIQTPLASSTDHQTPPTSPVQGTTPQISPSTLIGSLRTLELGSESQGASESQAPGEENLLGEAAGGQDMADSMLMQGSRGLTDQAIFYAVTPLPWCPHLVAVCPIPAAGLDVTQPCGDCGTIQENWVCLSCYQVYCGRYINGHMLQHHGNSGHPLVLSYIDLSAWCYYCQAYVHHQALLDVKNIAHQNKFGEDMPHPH
Description: HDAC6 Enzyme Assay. The following applies: compound concentration 0.37 μM, read-out: Percent Inhibition. In kind it is biochemical. The gist of the method:
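Readout is AMC fluorescence (Ex 340 nm, Em 460 nm) after trypsin cleavage of the deacetylated Ac-Arg-Gly-Lys(Ac)-AMC product. Reaction: purified human HDAC6, compound or vehicle, 1 hour, 30° C, quenched by trichostatin A. Single-concentration percent inhibition or IC50 calculated versus DMSO-treated samples.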
On to `NCCCn1ccc2ccc(C(=O)NO)cc2c1=O` [Compound I-173, 2-(3-aminopropyl)-N-hydroxy-1-oxo-1,2-dihydroisoquinoline-7-carboxamide], for which the inhibition at 0.37 µM worked out at 75.4%.

Regarding `CC(C)C(=O)Nc1cccc(Cn2ccc3ccc(C(=O)NO)cc3c2=O)c1` [Compound I-174, N-hydroxy-2-[3-(isobutyrylamino)benzyl]-1-oxo-1,2-dihydroisoquinoline-7-carboxamide], the inhibition at 0.37 µM was 98.8%. `Nc1cccc(-c2cccc(Cn3cnc4ccc(C(=O)NO)cc4c3=O)c2)c1` [Compound I-177, 3-[(3′-aminobiphenyl-3-yl)methyl]-N-hydroxy-4-oxo-3,4-dihydroquinazoline-6-carboxamide]: the inhibition at 0.37 µM is 93.2%. In the case of `O=C(NO)c1ccc2ccn(-c3cccc(Cl)c3)c(=O)c2c1` [Compound I-179, 2-(3-chlorophenyl)-N-hydroxy-1-oxo-1,2-dihydroisoquinoline-7-carboxamide], the inhibition at 0.37 µM came to 97.5%. Regarding `O=C(NO)c1ccc2ncn(Cc3cccc(-c4ccc(F)cc4)c3)c(=O)c2c1` [Compound I-181, 3-[(4′-fluorobiphenyl-3-yl)methyl]-N-hydroxy-4-oxo-3,4-dihydroquinazoline-6-carboxamide], the inhibition at 0.37 µM was 92.7%. In the case of `CC(C)c1cccc(-c2cccc(Cn3cnc4ccc(C(=O)NO)cc4c3=O)c2)c1` [Compound I-182, N-hydroxy-3-[(3′-isopropylbiphenyl-3-yl)methyl]-4-oxo-3,4-dihydroquinazoline-6-carboxamide], the inhibition at 0.37 µM worked out at 78.9%.

The experiment is the same for the next values; noted with them: compound concentration 0.412 μM, read-out: Percent Inhibition.
Take `O=C(NO)c1ccc2ccn(CCCN3CCCCC3)c(=O)c2c1` [Compound I-170, N-hydroxy-1-oxo-2-(3-piperidin-1-ylpropyl)-1,2-dihydroisoquinoline-7-carboxamide]: the inhibition at 0.412 µM stood at 67.1%. On the same count and under the same terms, the value for `CC(C)n1ccc2ccc(C(=O)NO)cc2c1=O` [Compound I-171, N-hydroxy-2-isopropyl-1-oxo-1,2-dihydroisoquinoline-7-carboxamide] was 87%. In the case of `O=C(NO)c1ccc2ccn(Cc3ccccc3C(F)(F)F)c(=O)c2c1` [Compound I-172, N-hydroxy-1-oxo-2-[2-(trifluoromethyl)benzyl]-1,2-dihydroisoquinoline-7-carboxamide], the inhibition at 0.412 µM was 94.5%. Turning to `O=C(NO)c1ccc2ccn(CCOc3ccccc3C(F)(F)F)c(=O)c2c1` [Compound I-175, N-hydroxy-1-oxo-2-{2-[2-(trifluoromethyl)phenoxy]ethyl}-1,2-dihydroisoquinoline-7-carboxamide], the inhibition at 0.412 µM came to 95.9%. `O=C(NO)c1ccc2ccn(CCCOc3cccc(C(F)(F)F)c3)c(=O)c2c1` [Compound I-176, N-hydroxy-1-oxo-2-{3-[3-(trifluoromethyl)phenoxy]propyl}-1,2-dihydroisoquinoline-7-carboxamide]: the inhibition at 0.412 µM is 94.2%. Turning to `O=C(NO)c1ccc2ccn(Cc3ccccc3CS(=O)(=O)c3ccccc3)c(=O)c2c1` [Compound I-178, N-hydroxy-1-oxo-2-{2-[(phenylsulfonyl)methyl]benzyl}-1,2-dihydroisoquinoline-7-carboxamide], the inhibition at 0.412 µM was 95%. Regarding `O=C(NO)c1ccc2ncn(CCOc3ccccc3)c(=O)c2c1` [Compound I-180, N-hydroxy-4-oxo-3-(2-phenoxyethyl)-3,4-dihydroquinazoline-6-carboxamide], the inhibition at 0.412 µM was determined as 97%.

Regarding `Cc1nc(-c2ccccc2OCCCn2ccc3ccc(C(=O)NO)cc3c2=O)cs1` [Compound I-183, N-hydroxy-2-{3-[2-(2-methyl-1,3-thiazol-4-yl)phenoxy]propyl}-1-oxo-1,2-dihydroisoquinoline-7-carboxamide], the inhibition at 0.412 µM worked out at 67.4%.

For `CC(C)(C)OC(=O)N1CCC(Cn2ccc3ccc(C(=O)NO)cc3c2=O)CC1` [Compound I-184, tert-butyl 4-{[7-[(hydroxyamino)carbonyl]-1-oxoisoquinolin-2(1H)-yl]methyl}piperidine-1-carboxylate], the inhibition at 0.412 µM turned out to be 88.9%. Consider `O=C(NO)c1ccc2ncn(Cc3cccc(C(F)(F)F)c3)c(=O)c2c1` [Compound I-185, N-hydroxy-4-oxo-3-[3-(trifluoromethyl)benzyl]-3,4-dihydroquinazoline-6-carboxamide], for which the inhibition at 0.412 µM came to 95.5%. For `CS(=O)(=O)c1ccc(Cn2ccc3ccc(C(=O)NO)cc3c2=O)cc1` [Compound I-186, N-hydroxy-2-[4-(methylsulfonyl)benzyl]-1-oxo-1,2-dihydroisoquinoline-7-carboxamide], the inhibition at 0.412 µM was 95.5%.

In the case of `O=C(NO)c1ccc2ccn(Cc3c(F)cccc3Cl)c(=O)c2c1` [Compound I-187, 2-(2-chloro-6-fluorobenzyl)-N-hydroxy-1-oxo-1,2-dihydroisoquinoline-7-carboxamide], the inhibition at 0.412 µM amounted to 95.1%. Turning to `COc1ccc(N(CCCn2ccc3ccc(C(=O)NO)cc3c2=O)C(=O)OC(C)(C)C)cc1` [Compound I-188, tert-butyl {3-[7-[(hydroxyamino)carbonyl]-1-oxoisoquinolin-2(1H)-yl]propyl}(4-methoxyphenyl)carbamate], the inhibition at 0.412 µM is 94.4%. As to `O=C(NO)c1ccc2ccn(CCOc3ccc(-c4csnn4)cc3)c(=O)c2c1` [Compound I-189, N-hydroxy-1-oxo-2-{2-[4-(1,2,3-thiadiazol-4-yl)phenoxy]ethyl}-1,2-dihydroisoquinoline-7-carboxamide], the inhibition at 0.412 µM stood at 97.2%. `O=C(NO)c1ccc2ccn(Cc3ccc(OC(F)(F)F)cc3)c(=O)c2c1` [Compound I-190, N-hydroxy-1-oxo-2-[4-(trifluoromethoxy)benzyl]-1,2-dihydroisoquinoline-7-carboxamide]: the inhibition at 0.412 µM stood at 92.9%. For `O=C(NO)c1ccc2ccn(CCCOc3ccc4c(c3)OCO4)c(=O)c2c1` [Compound I-191, 2-[3-(1,3-benzodioxol-5-yloxy)propyl]-N-hydroxy-1-oxo-1,2-dihydroisoquinoline-7-carboxamide], the inhibition at 0.412 µM turned out to be 95.5%. On to `CN(C)c1nc2cc(C(=O)NO)ccc2c(=O)n1-c1ccccc1` [Compound I-192, 2-(dimethylamino)-N-hydroxy-4-oxo-3-phenyl-3,4-dihydroquinazoline-7-carboxamide], for which the inhibition at 0.412 µM worked out at 61.5%.

Consider `O=C(NO)c1ccc2ncn(Cc3ccccn3)c(=O)c2c1` [Compound I-193, N-hydroxy-4-oxo-3-(pyridin-2-ylmethyl)-3,4-dihydroquinazoline-6-carboxamide], for which the inhibition at 0.412 µM came out at 79.1%. On to `O=C(NO)c1ccc2c(=O)n(Cc3ccccc3)c(=O)[nH]c2c1` [Compound I-194, 3-benzyl-N-hydroxy-2,4-dioxo-1,2,3,4-tetrahydroquinazoline-7-carboxamide], for which the inhibition at 0.412 µM is 36.1%. Still for that read-out and setting: the value for `O=C(NO)c1ccc2c(=O)n(-c3ccccc3)c(=O)[nH]c2c1` [Compound I-195, N-hydroxy-2,4-dioxo-3-phenyl-1,2,3,4-tetrahydroquinazoline-7-carboxamide] was 16.1%. As to `O=C(NO)c1ccc2ccn(CCOc3cccc4c3CCC4)c(=O)c2c1` [Compound I-196, 2-[2-(2,3-dihydro-1H-inden-4-yloxy)ethyl]-N-hydroxy-1-oxo-1,2-dihydroisoquinoline-7-carboxamide], the inhibition at 0.412 µM worked out at 95.2%. Still for that read-out and setting: the value for `Cc1ccc(OCCCn2ccc3ccc(C(=O)NO)cc3c2=O)cc1` [Compound I-197, N-hydroxy-2-[3-(4-methylphenoxy)propyl]-1-oxo-1,2-dihydroisoquinoline-7-carboxamide] was 96.5%; that for `O=C(NO)c1ccc2ccn(Cc3cc(F)ccc3F)c(=O)c2c1` [Compound I-198, 2-(2,5-difluorobenzyl)-N-hydroxy-1-oxo-1,2-dihydroisoquinoline-7-carboxamide] was 96.4%; that for `Nc1nc2cc(C(=O)NO)ccc2c(=O)[nH]1` [Compound I-199, 2-amino-N-hydroxy-4-oxo-3,4-dihydroquinazoline-7-carboxamide] was 42.4%.
